According to PubChem BioAssay (NCI):
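Test compounds were applied to cells in 96-well plates for 48 hours at 5 doses. At the TGI there is no net growth.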

What was measured:
Assay in all cases: DTP human tumour cell line panel, 48 h
OVCAR-8 ovarian = test system: OVCAR-8 ovarian
MDA-MB-231 breast = test system: MDA-MB-231 breast
786-0 renal = test system: 786-0 renal
RPMI-8226 leukemia = test system: RPMI-8226 leukemia
BT-549 breast = test system: BT-549 breast
MALME-3M melanoma = test system: MALME-3M melanoma
A549 NSCLC = test system: A549 NSCLC
SN12C renal = test system: SN12C renal
NCI-H226 lung = test system: NCI-H226 lung
SK-MEL-2 melanoma = test system: SK-MEL-2 melanoma
NCI/ADR-RES ovarian = test system: NCI/ADR-RES ovarian
EKVX NSCLC = test system: EKVX NSCLC
SF-539 CNS = test system: SF-539 CNS
OVCAR-3 ovarian = test system: OVCAR-3 ovarian
HCC-2998 colon = test system: HCC-2998 colon
PC-3 prostate = test system: PC-3 prostate
M14 melanoma = test system: M14 melanoma
IGROV1 ovarian = test system: IGROV1 ovarian
MDA-MB-435 = test system: MDA-MB-435
SF-295 CNS = test system: SF-295 CNS
HCT-116 colon = test system: HCT-116 colon
UACC-257 melanoma = test system: UACC-257 melanoma
MCF7 breast = test system: MCF7 breast
CAKI-1 renal = test system: CAKI-1 renal
UACC-62 melanoma = test system: UACC-62 melanoma
RXF 393 renal = test system: RXF 393 renal
U251 CNS = test system: U251 CNS
HT29 colon = test system: HT29 colon
SK-MEL-5 melanoma = test system: SK-MEL-5 melanoma
CCRF-CEM leukemia = test system: CCRF-CEM leukemia
KM12 colon = test system: KM12 colon
SNB-75 CNS = test system: SNB-75 CNS
TK-10 renal = test system: TK-10 renal
NCI-H522 lung = test system: NCI-H522 lung
HCT-15 colon = test system: HCT-15 colon
SNB-19 CNS = test system: SNB-19 CNS
UO-31 renal = test system: UO-31 renal
NCI-H460 lung = test system: NCI-H460 lung
HS 578T breast = test system: HS 578T breast
SF-268 CNS = test system: SF-268 CNS
NCI-H23 lung = test system: NCI-H23 lung
DU-145 prostate = test system: DU-145 prostate
A498 renal = test system: A498 renal
ACHN renal = test system: ACHN renal
SK-MEL-28 melanoma = test system: SK-MEL-28 melanoma
OVCAR-5 ovarian = test system: OVCAR-5 ovarian
COLO 205 colon = test system: COLO 205 colon
SK-OV-3 ovarian = test system: SK-OV-3 ovarian

Measured: TGI

Cc1ccc(S(=O)(=O)Oc2nc3nc4ccccc4nc3nc2OS(=O)(=O)c2ccc(C)cc2)cc1
> 100 µM: all assays above
